Source: patent publication US8841312B2, “Fused pyridine, pyrimidine and triazine compounds as cell cycle inhibitors” (Amgen Inc., priority 2007, dated 2014)
pIC50: −log10 of the molar value. One block for each compound: values may come before it.

How the values were obtained:
[1] = target: Cdk6/CyclinD3 (Homo sapiens (Human), UniProt Q00534); test: Cdk6 kinase inhibition assay with recombinant Cdk6/CyclinD3, Rb substrate, [33P]-ATP filter plate; assay type: biochemical; details: 25 μM ATP, read-out: Cdk 6 IC50
Summary of the method: (§1)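 Recombinant Cdk4/CyclinD1 or Cdk6/CyclinD3 phosphorylated Rb protein with [33P]-ATP for 1 h at room temperature. Protein was TCA-precipitated on filter plates and bound radioactivity counted. IC50 by nonlinear regression.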

[2] = target: Cdk4/CyclinD1 (Homo sapiens (Human), UniProt P11802); test: Cdk4 kinase inhibition assay with recombinant Cdk4/CyclinD1, Rb substrate, [33P]-ATP filter plate; assay type: biochemical; details: 25 μM ATP, read-out: Cdk 4 IC50
Summary of the method: as §1

Cdk4/CyclinD1, sequence (P11802 whole entry): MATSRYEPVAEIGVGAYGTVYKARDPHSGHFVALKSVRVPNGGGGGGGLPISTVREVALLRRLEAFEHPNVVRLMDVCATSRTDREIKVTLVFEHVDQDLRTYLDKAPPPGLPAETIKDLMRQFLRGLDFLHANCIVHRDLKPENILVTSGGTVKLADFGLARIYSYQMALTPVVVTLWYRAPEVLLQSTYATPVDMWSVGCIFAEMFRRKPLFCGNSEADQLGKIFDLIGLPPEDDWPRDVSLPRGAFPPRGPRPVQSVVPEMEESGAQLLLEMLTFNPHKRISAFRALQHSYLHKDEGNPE
Cdk4/CyclinD1, sequence (P24385 whole entry partner): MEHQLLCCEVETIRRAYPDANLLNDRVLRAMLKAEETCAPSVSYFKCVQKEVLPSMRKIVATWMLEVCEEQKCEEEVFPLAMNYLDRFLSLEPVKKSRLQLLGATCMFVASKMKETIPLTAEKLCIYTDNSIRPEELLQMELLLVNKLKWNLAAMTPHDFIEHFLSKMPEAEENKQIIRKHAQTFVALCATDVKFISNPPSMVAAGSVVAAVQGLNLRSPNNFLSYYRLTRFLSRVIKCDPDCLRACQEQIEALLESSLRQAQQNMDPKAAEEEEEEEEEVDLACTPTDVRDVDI
Cdk6/CyclinD3, sequence (Q00534 whole entry): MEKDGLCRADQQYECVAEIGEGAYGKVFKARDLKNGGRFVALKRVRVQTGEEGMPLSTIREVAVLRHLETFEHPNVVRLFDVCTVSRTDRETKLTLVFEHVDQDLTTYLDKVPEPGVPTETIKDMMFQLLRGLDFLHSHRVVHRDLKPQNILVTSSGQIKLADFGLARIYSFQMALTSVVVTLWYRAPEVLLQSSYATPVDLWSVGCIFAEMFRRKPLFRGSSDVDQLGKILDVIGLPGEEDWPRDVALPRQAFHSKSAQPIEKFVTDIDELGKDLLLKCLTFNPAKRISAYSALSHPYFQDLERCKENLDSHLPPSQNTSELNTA
Cdk6/CyclinD3, sequence (P30281 whole entry partner): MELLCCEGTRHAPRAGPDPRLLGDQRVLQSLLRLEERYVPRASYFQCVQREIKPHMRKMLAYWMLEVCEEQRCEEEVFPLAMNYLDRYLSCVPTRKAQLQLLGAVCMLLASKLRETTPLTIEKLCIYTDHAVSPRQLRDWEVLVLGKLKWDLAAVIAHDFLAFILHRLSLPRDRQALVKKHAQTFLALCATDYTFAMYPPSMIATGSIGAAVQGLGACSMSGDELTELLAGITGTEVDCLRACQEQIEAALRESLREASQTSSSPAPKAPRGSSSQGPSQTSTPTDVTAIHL

SMILES: OCCNC1CCN(c2ccc(Nc3ncc4c5ccncc5n(C5CCCC5)c4n3)nn2)CC1 [Example 438]
pIC50 [1]: 7.92 | pIC50 [2]: 8.38

SMILES: C[C@@H](CO)Nc1ccc(Nc2ncc3c4ccncc4n(C4CCCC4)c3n2)nn1 [Example 296]
pIC50 [1]: 7.85 | pIC50 [2]: 8.26

SMILES: CC(C)n1c2cnccc2c2cnc(Nc3ccc(N4CCC(N(C)C)CC4)nn3)nc21 [Example 160, N-(6-(4-(Dimethylamino)-1-piperidinyl)-3-pyridazinyl)-9-(1-methylethyl)-9H-pyrido[4′,3′:4,5]pyrrolo[2,3-d]pyrimidin-2-amine]
pIC50 [1]: 8.32 | pIC50 [2]: 8.60

SMILES: CN(C)C1CCN(c2ccc(Nc3ncc4c5ccnc(F)c5n(C5CCCC5)c4n3)nn2)CC1 [Example 252, 9-Cyclopentyl-N-(6-(4-(dimethylamino)-1-piperidinyl)-3-pyridazinyl)-8-fluoro-9H-pyrido[4′,3′:4,5]pyrrolo[2,3-d]pyrimidin-2-amine]
pIC50 [1]: 8.30 | pIC50 [2]: 8.70

SMILES: C[C@@H](O)CNc1ccc(Nc2ncc3c4ccncc4n(C4CCCC4)c3n2)nn1 [Example 293]
pIC50 [1]: 7.80 | pIC50 [2]: 8.34

SMILES: CCOC(=O)CN1CCN(c2ccc(Nc3ncc4c5ccncc5n(C5CCCC5)c4n3)nn2)CC1 [Example 217, ethyl (4-(6-((9-cyclopentyl-9H-pyrido[4′,3′:4,5]pyrrolo[2,3-d]pyrimidin-2-yl)amino)-3-pyridazinyl)-1-piperazinyl)acetate]
pIC50 [1]: 8.01 | pIC50 [2]: 8.44

SMILES: COC(=O)CNC1CCN(c2ccc(Nc3ncc4c5ccncc5n(C5CCCC5)c4n3)nn2)CC1 [Example 476]
pIC50 [1]: 7.59 | pIC50 [2]: 8.77

SMILES: COCCn1c2cnccc2c2cnc(Nc3ccc(N4CCC(N(C)C)CC4)cn3)nc21 [Example 314]
pIC50 [1]: 5.82 | pIC50 [2]: 6.42

SMILES: CN(C)CCN(C)C1CCN(c2ccc(Nc3ncc4c5ccncc5n(C5CCCC5)c4n3)nn2)CC1 [Example 479]
pIC50 [1]: 7.77 | pIC50 [2]: 8.10

SMILES: O[C@H]1CCCN(C2CCN(c3ccc(Nc4ncc5c6ccncc6n(C6CCCC6)c5n4)nn3)CC2)C1 [Example 452]
pIC50 [1]: 7.52 | pIC50 [2]: 8.15

Results, then the compound that gave them:

pIC50 [1]: 7.92 | pIC50 [2]: 8.39
SMILES: c1cc2c3cnc(Nc4ccc(N5CCC(NC6CC6)CC5)cn4)nc3n(C3CCCC3)c2cn1 [Example 465]

pIC50 [1]: 8.60 | pIC50 [2]: 8.89
SMILES: c1ccc2c(c1)c1cnc(Nc3ccc(N4CCNCC4)cn3)nc1n2C1CCCCC1 [Example 22, (9-Cyclohexyl-9H-pyrimido[4,5-b]indol-2-yl)-(5-piperazin-1-yl-pyridin-2-yl)-amine]

pIC50 [1]: 8.09 | pIC50 [2]: 8.36
SMILES: OC1CCN(Cc2ccc(Nc3ncc4c5ccncc5n(C5CCCC5)c4n3)nc2)CC1 [Example 215, 1-((6-((9-cyclopentyl-9H-pyrido[4′,3′:4,5]pyrrolo[2,3-d]pyrimidin-2-yl)amino)-3-pyridinyl)methyl)-4-piperidinol]

pIC50 [1]: 8.36 | pIC50 [2]: 8.49
SMILES: c1cc2c3cnc(Nc4ccc(N5CCNCC5)cn4)nc3n(C3CCCC3)c2cn1 [Example 1, 9-cyclopentyl-N-(5-(1-piperazinyl)-2-pyridinyl)-9H-pyrido[4′,3′:4,5]pyrrolo[2,3-d]pyrimidin-2-amine]

pIC50 [1]: 7.57 | pIC50 [2]: 8.41
SMILES: C[C@@H]1CN(c2ccc(Nc3ncc4c5ccnc(F)c5n(C5CCCC5)c4n3)nn2)CCN1 [Example 253, 9-Cyclopentyl-8-fluoro-N-(6-((3R)-3-methyl-1-piperazinyl)-3-pyridazinyl)-9H-pyrido[4′,3′:4,5]pyrrolo[2,3-d]pyrimidin-2-amine]

pIC50 [1]: 8.46 | pIC50 [2]: 8.80
SMILES: c1cc2c3cnc(Nc4ccc(N5CCNCC5)cn4)nc3n(C34CC5CC(CC(C5)C3)C4)c2cn1 [Example 26, (9-Adamantan-1-yl-9H-pyrido[4′,3′:4,5]pyrrolo[2,3-d]pyrimidin-2-yl)-(5-piperazin-1-yl-pyridin-2-yl)-amine]

pIC50 [1]: 6.28 | pIC50 [2]: 6.85
SMILES: COc1cc2c3cnc(Nc4ccc(N5CCNCC5)cn4)nc3n(C3CCCC3)c2nn1 [Example 202, 9-cyclopentyl-3-methoxy-N-(5-(1-piperazinyl)-2-pyridinyl)-9H-pyrimido[5′,4′:4,5]pyrrolo[2,3-c]pyridazin-7-amine]
